Source: PubChem BioAssay AID330 (DTP/NCI, 2004)
Inconclusive results and toxic doses are left out. The calls were made as follows: active = survival T/C of 150% or more; inactive = T/C below 125% in these data. Peptide text beside a SMILES is read from it. * marks the point of attachment. Propionyl = CCC(=O)*; Bn = c1ccc(C*)cc1

Test system: P388 leukemia ip, CD2F1 mice, survival T/C
Assay: NCI In Vivo Anticancer Drug Screen. Data for tumor model P388 Leukemia (intraperitoneal) in CD2F1 (CDF1) mice
Settings: endpoint: median survival time, higher = longer survival
Summary of the method: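 Mice carrying the transplanted tumor received test compound or vehicle. Survival was recorded in each group, and the value is the treated-group measurement divided by that of the vehicle-treated control group.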

[1] = dose: 60.0 mg/kg/injection, schedule: Q01DX005 (ip), vehicle: Klucel (hydroxypropylcellulose) (HPC)
[2] = dose: 120.0 mg/kg/injection, schedule: Q01DX005 (ip), vehicle: Klucel (hydroxypropylcellulose) (HPC)
[3] = dose: 240.0 mg/kg/injection, schedule: Q01DX005 (ip), vehicle: Klucel (hydroxypropylcellulose) (HPC)
[4] = dose: 50.0 mg/kg/injection, schedule: Q01DX009 (ip), vehicle: Klucel (hydroxypropylcellulose) (HPC)
[5] = dose: 100.0 mg/kg/injection, schedule: Q01DX009 (ip), vehicle: Klucel (hydroxypropylcellulose) (HPC)
[6] = dose: 200.0 mg/kg/injection, schedule: Q01DX009 (ip), vehicle: Klucel (hydroxypropylcellulose) (HPC)
[7] = dose: 60.0 mg/kg/injection, schedule: Q01DX005 (ip), vehicle: saline with Tween-80
[8] = dose: 120.0 mg/kg/injection, schedule: Q01DX005 (ip), vehicle: saline with Tween-80
[9] = dose: 240.0 mg/kg/injection, schedule: Q01DX005 (ip), vehicle: saline with Tween-80

Measured: T/C

COC(=O)C1=C(N2CCCC2)C2c3ccccc3SC12C(=O)OC (centres undefined)
inactive: [1] 104 % of control | [2] 98 % of control | [3] 94 % of control

CCOC(=O)C1C(c2cc(OC)c(OC)c(OC)c2)c2cc3c(cc2OC1(C)N1CCCC1)OCO3 (centres undefined)
inactive: [1] 97 % of control | [2] 96 % of control | [3] 96 % of control

CCCCCCCCCCCCCN1CCS(=O)(=O)CC1
inactive: [4] 98 % of control | [5] 94 % of control | [6] 89 % of control

CCC(=O)NC(CSCc1ccccc1)C(=O)NC(CCC(=O)OC)C(=O)OC (centres undefined) (Propionyl-Cys(Bn)-Glu(OMe)-OMe; configuration not given here)
inactive: dose: 50.0 mg/kg/injection, schedule: Q01DX009 (ip), vehicle: saline with Tween-80 110 % of control | dose: 100.0 mg/kg/injection, schedule: Q01DX009 (ip), vehicle: saline with Tween-80 100 % of control | dose: 200.0 mg/kg/injection, schedule: Q01DX009 (ip), vehicle: saline with Tween-80 97 % of control

O=C(O)CC[n+]1cccc2c1C(=O)C(=O)c1ncccc1-2
inactive: dose: 100.0 mg/kg/injection, schedule: Q04DX002 (ip), vehicle: saline 114 % of control | dose: 200.0 mg/kg/injection, schedule: Q04DX002 (ip), vehicle: saline 107 % of control

C=CC(=O)N/C(N)=N\C(N)=O
inactive: dose: 3.0 mg/kg/injection, schedule: Q01DX005 (ip), vehicle: saline 110 % of control | dose: 6.0 mg/kg/injection, schedule: Q01DX005 (ip), vehicle: saline 112 % of control | dose: 12.0 mg/kg/injection, schedule: Q01DX005 (ip), vehicle: saline 113 % of control | dose: 12.5 mg/kg/injection, schedule: Q01DX005 (ip), vehicle: saline 113 % of control

S=C1SCCCN1Cc1ccc(Cl)cc1
inactive: [4] 95 % of control | [5] 104 % of control | [6] 107 % of control

COc1ccc(/C=N\Nc2cc(C)nc3ccc(C4CCCCC4)cc23)c2ccccc12
inactive: [7] 99 % of control | [8] 104 % of control | [9] 93 % of control

Cc1ccc(OS(=O)(=O)NC(=O)NCc2ccco2)cc1
inactive: dose: 50.0 mg/kg/injection, schedule: Q01DX009 (ip), vehicle: saline 92 % of control | dose: 100.0 mg/kg/injection, schedule: Q01DX009 (ip), vehicle: saline 101 % of control | dose: 200.0 mg/kg/injection, schedule: Q01DX009 (ip), vehicle: saline 105 % of control

COc1ccc(C(=O)C2=C(C)Nc3ccc(Br)cc3S2)cc1
inactive: [7] 101 % of control | [8] 110 % of control | [9] 105 % of control

CCC[n+]1noc(N)n1
inactive: dose: 3.13 mg/kg/injection, schedule: Q01DX009 (ip), vehicle: water 97 % of control | dose: 6.25 mg/kg/injection, schedule: Q01DX009 (ip), vehicle: water 99 % of control | dose: 12.5 mg/kg/injection, schedule: Q01DX009 (ip), vehicle: water 90 % of control | dose: 25.0 mg/kg/injection, schedule: Q01DX009 (ip), vehicle: water 97 % of control | dose: 50.0 mg/kg/injection, schedule: Q01DX009 (ip), vehicle: water 106 % of control | dose: 100.0 mg/kg/injection, schedule: Q01DX009 (ip), vehicle: water 106 % of control

CCCCCCCCCCCCCCCC(=O)Nc1cccc2c[n+](CC(=O)c3ccc(NC(=O)CCC(=O)OC)cc3)ccc12
inactive: dose: 100.0 mg/kg/injection, schedule: Q01DX001 (ip), vehicle: saline with Tween-80 90 % of control | dose: 200.0 mg/kg/injection, schedule: Q01DX001 (ip), vehicle: saline with Tween-80 86 % of control | dose: 400.0 mg/kg/injection, schedule: Q01DX001 (ip), vehicle: saline with Tween-80 109 % of control

O=c1[nH]cn[nH]1
inactive: dose: 50.0 mg/kg/injection, schedule: Q01DX005 (ip), vehicle: saline 101 % of control | dose: 100.0 mg/kg/injection, schedule: Q01DX005 (ip), vehicle: saline 98 % of control | dose: 200.0 mg/kg/injection, schedule: Q01DX005 (ip), vehicle: saline 95 % of control

CCC(C)C1NC(=O)C2C(CCN2C(=O)C(Cc2c[nH]c3ccccc23)NC(=O)C(CC(C)C)N(C)C)Oc2ccc(cc2)/C=C\NC1=O (centres undefined)
inactive: dose: 100.0 mg/kg/injection, schedule: Q04DX003 (ip), vehicle: saline with Tween-80 94 % of control | dose: 200.0 mg/kg/injection, schedule: Q04DX003 (ip), vehicle: saline with Tween-80 97 % of control

O=C(/C=N/O)Nc1ccccc1I
inactive: dose: 50.0 mg/kg/injection, schedule: Q01DX005 (ip), vehicle: Klucel (hydroxypropylcellulose) (HPC) 100 % of control | dose: 100.0 mg/kg/injection, schedule: Q01DX005 (ip), vehicle: Klucel (hydroxypropylcellulose) (HPC) 98 % of control | dose: 200.0 mg/kg/injection, schedule: Q01DX005 (ip), vehicle: Klucel (hydroxypropylcellulose) (HPC) 115 % of control

CC1(C)CC(OS(C)(=O)=O)CC(C)(C)N1O
inactive: [4] 100 % of control | [5] 99 % of control
